Experimental findings from publication PMC3572206 (Biomaterials, 2012) are described below.

The IC50 is the point on the concentration scale where inhibition reaches its midpoint.

The subject of experiment [1] is MDA-1986 human head and neck squamous cell carcinoma xenografts.
The next experiment deals with MDA-1986. Briefly: Cytotoxicity. Type of experiment: cell-based, human. Particulars: read-out: IC50: MDA-1986; 72 hrs post-addition.
The subject of the next experiment is MDA-MB-468. Briefly: Cytotoxicity. In kind it is cell-based, human. The settings on record: read-out: IC50: MDA-MB-468; 72 hrs post-addition.
In the next experiment the test system is MDA-1986 cells. Nature of the experiment: Nitric oxide release in vitro. Type of experiment: cell-based, human.
The test system of another experiment is MDA-MB-231. Nature of the experiment: Cytotoxicity. Type of experiment: cell-based, human. The settings on record: read-out: IC50: MDA-MB-231; 72 hrs post-addition.

Consider `CCOC(=O)N1CCN(/[N+]([O-])=N/Oc2ccc([N+](=O)[O-])cc2[N+](=O)[O-])CC1` [JS-K, O^2-(2,4-Dinitrophenyl) 1-[(4-ethoxycarbonyl)piperazin-1-yl]diazen-1-ium-1,2-diolate, reference compound], for which the “progressive disease (PD) rate” value in experiment [1] (10 mg/kg, Sugar-NO1 s.c., JS-K i.v.) was determined as 100%. The “animals euthanized (tumor size exceeding 1000 mm^3 or necrosis of the injection site on the tail)” value in experiment [1] (within 7 weeks) is listed as 100%. The IC50 in the experiment with MDA-1986 is 16 µM; in the experiment on MDA-MB-468, 42 µM.

For `O=[N+]([O-])c1ccc(ON=[N+]([O-])N2CCN(CCOCCO)CC2)c([N+](=O)[O-])c1` [NO1, O^2-(2,4-Dinitrophenyl) 1-{[4-(2-(2-hydroxyethoxy))ethyl]piperazin-1-yl} diazen-1-ium-1,2-diolate], in the experiment on MDA-1986 cells, the “increase in release half-life compared to JS-K” value is listed as 1 fold. For the same molecule, the values for the IC50 with MDA-MB-231, in the experiment with MDA-1986 and in the experiment on MDA-MB-468 were 32 µM, 32 µM and 26 µM, respectively.

Take “O^2-(2,4-Dinitrophenyl) 1-{[4-(2-hydroxy)ethyl]-3-methylpiperazin-1-yl}diazen-1-ium-1,2-diolate [NO2]”: the half-maximal inhibitory concentration (IC50) in the experiment with MDA-1986 came out at 57 µM; in the experiment on MDA-MB-468, 27 µM.
